# According to ChEMBL document CHEMBL3991601, “The target landscape of clinical kinase drugs” (Science, 2017):
# Active and inactive are the calls of the source.
# How the values were obtained:
# [1] = molecular target: Proto-oncogene tyrosine-protein kinase receptor Ret (Homo sapiens, UniProt P07949)
# [2] = molecular target: DnaJ homolog subfamily A member 1 (Homo sapiens, UniProt P31689)
# Ephrin type-B receptor 6 = molecular target: T1, Ephrin type-B receptor 6 (Homo sapiens, UniProt O15197)
# T1 sequence (O15197 whole entry): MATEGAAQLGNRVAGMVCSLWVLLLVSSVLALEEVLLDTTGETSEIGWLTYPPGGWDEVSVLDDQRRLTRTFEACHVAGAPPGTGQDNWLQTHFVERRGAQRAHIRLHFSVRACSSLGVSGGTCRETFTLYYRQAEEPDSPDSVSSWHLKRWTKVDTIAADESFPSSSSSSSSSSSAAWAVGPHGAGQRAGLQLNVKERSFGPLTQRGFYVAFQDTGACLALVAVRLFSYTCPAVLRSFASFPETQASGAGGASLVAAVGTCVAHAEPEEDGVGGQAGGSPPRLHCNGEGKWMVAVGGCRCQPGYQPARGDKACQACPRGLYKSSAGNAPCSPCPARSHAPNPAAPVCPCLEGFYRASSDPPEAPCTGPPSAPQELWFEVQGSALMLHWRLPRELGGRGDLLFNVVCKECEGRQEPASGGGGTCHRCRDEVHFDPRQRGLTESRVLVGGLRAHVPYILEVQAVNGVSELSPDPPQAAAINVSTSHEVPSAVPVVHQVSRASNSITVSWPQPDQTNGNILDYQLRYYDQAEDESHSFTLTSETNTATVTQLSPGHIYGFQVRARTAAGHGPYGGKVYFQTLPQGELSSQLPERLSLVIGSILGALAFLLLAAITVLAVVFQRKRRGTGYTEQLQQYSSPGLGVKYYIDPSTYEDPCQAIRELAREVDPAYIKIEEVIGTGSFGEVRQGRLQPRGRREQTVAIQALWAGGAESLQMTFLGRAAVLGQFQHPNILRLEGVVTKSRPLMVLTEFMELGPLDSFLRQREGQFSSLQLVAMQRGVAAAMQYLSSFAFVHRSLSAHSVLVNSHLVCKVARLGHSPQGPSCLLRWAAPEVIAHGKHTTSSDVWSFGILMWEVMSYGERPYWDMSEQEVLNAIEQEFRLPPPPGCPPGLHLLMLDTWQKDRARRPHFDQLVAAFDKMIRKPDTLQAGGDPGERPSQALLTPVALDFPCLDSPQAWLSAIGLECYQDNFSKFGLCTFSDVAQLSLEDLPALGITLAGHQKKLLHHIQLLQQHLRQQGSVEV
# [3] = molecular target: ATP-dependent RNA helicase DDX3X (Homo sapiens, UniProt O00571)
# Chain of ATP-dependent RNA helicase DDX3X (O00571 whole entry): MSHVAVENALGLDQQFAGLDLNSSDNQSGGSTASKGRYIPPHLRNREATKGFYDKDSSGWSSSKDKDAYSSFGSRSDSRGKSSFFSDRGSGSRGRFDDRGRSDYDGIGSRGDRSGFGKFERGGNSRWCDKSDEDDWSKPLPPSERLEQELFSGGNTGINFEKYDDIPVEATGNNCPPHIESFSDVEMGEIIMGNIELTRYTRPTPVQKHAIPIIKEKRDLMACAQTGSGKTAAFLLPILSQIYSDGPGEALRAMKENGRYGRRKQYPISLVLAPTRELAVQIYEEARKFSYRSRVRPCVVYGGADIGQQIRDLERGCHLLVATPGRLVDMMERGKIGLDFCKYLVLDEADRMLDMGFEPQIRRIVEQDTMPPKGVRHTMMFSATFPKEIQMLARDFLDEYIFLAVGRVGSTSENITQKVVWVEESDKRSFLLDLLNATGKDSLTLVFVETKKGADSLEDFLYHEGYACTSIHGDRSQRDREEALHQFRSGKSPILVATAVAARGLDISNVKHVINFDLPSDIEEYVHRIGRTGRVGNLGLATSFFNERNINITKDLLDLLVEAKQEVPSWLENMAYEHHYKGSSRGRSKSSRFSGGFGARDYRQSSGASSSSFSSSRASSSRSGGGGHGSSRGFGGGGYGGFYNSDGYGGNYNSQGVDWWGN
# [4] = molecular target: Bone morphogenetic protein receptor type-1B (Homo sapiens, UniProt O00238)
# Chain of Bone morphogenetic protein receptor type-1B (O00238 whole entry): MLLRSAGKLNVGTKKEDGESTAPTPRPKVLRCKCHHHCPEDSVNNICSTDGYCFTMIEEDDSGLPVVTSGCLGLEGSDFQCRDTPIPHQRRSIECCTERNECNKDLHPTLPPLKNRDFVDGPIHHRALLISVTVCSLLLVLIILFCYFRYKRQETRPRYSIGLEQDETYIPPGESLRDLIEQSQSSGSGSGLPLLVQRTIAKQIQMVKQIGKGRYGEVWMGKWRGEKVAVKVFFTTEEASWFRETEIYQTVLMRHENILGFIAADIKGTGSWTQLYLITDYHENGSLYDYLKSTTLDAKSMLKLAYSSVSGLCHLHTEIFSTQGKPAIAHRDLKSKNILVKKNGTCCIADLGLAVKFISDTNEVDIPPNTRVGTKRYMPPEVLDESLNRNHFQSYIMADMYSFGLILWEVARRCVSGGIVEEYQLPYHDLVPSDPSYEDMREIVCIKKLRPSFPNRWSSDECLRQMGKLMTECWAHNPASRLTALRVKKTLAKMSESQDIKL
# [5] = molecular target: T2, Acyl-CoA dehydrogenase family member 10 (Homo sapiens, UniProt Q6JQN1)
# T2 sequence (Q6JQN1 whole entry): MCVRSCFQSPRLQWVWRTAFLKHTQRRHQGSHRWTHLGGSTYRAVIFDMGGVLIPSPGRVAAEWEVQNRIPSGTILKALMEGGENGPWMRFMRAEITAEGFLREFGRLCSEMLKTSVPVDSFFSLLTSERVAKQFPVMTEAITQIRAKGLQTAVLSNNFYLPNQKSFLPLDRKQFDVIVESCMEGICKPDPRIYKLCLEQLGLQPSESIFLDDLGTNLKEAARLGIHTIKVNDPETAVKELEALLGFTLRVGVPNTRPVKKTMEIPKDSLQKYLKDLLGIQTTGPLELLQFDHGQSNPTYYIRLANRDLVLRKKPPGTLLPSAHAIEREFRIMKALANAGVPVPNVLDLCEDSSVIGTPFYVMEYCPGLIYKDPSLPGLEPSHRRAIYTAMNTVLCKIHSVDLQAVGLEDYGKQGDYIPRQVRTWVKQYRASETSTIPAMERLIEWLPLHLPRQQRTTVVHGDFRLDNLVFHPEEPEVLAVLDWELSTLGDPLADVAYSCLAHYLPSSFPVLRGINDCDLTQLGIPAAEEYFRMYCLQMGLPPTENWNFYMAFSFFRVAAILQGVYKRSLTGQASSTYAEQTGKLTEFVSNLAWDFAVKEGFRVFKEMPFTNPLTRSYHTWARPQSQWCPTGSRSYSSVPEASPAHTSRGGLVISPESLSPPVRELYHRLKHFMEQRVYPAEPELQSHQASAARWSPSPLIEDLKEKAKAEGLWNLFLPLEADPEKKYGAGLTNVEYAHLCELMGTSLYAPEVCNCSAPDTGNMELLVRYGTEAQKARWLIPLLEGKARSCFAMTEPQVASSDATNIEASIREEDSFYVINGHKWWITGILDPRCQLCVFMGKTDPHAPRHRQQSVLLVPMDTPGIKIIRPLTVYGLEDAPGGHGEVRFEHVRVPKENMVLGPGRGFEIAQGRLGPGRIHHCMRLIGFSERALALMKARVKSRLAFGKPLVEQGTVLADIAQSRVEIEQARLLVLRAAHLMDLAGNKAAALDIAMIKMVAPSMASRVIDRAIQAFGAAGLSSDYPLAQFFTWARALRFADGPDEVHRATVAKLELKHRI
# TGF-beta receptor type-2 = TGF-beta receptor type-2 (Homo sapiens, UniProt P37173)
# Chain of TGF-beta receptor type-2 (P37173 whole entry, the tested form may be a part): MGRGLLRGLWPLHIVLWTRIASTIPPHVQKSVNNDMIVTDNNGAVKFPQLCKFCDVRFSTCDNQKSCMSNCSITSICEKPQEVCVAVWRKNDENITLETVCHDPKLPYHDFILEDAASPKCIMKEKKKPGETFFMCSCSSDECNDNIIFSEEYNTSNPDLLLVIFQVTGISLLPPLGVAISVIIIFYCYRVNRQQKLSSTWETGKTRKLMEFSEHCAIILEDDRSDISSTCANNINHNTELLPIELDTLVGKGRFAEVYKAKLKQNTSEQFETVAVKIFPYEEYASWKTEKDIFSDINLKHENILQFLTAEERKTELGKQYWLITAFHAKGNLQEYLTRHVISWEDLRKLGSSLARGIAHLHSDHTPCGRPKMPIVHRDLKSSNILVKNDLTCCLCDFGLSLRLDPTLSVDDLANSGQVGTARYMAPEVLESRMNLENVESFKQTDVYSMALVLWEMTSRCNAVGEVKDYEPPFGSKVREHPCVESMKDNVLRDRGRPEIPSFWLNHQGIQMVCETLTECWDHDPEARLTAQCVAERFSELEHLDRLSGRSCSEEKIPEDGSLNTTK
# [6] = molecular target: PAS domain-containing serine/threonine-protein kinase (Homo sapiens, UniProt Q96RG2)
# Chain of PAS domain-containing serine/threonine-protein kinase (Q96RG2 whole entry, the tested form may be a part): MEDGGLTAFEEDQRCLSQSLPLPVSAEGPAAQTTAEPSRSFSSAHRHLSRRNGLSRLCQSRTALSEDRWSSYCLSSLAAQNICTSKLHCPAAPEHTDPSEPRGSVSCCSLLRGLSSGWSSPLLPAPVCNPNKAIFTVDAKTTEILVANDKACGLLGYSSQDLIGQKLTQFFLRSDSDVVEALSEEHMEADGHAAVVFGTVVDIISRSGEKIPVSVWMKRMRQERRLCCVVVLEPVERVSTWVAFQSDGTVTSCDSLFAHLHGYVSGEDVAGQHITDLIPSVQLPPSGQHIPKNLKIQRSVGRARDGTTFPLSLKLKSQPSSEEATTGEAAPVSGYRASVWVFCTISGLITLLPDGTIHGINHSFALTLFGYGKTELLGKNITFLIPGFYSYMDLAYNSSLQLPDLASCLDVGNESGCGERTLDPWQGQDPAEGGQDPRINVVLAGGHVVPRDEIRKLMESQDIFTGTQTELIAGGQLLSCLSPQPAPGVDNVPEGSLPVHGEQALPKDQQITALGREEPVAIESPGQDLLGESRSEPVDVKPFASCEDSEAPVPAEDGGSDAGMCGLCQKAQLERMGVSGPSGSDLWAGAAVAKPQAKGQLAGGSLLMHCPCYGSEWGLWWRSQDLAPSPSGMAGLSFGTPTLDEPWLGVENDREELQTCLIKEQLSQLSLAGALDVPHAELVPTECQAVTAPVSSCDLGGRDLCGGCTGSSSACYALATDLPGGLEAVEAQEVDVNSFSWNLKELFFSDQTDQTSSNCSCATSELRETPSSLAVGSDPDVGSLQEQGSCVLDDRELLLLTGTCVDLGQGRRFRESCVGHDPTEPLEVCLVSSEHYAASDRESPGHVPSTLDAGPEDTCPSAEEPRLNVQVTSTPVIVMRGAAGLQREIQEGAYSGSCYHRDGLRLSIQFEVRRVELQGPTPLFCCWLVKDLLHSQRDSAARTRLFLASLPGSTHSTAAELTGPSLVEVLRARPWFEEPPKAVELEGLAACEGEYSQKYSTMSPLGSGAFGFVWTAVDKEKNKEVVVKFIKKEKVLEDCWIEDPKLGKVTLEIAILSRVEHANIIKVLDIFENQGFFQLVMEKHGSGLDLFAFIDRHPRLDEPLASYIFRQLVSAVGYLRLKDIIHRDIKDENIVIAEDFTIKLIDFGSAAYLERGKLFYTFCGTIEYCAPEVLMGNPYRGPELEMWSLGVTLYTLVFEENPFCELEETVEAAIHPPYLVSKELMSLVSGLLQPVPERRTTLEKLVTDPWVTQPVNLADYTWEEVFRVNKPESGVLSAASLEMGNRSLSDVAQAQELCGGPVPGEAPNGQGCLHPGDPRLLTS
# Note: in the data inactive means no Kd found up to 30 µM.
# Chain of Proto-oncogene tyrosine-protein kinase receptor Ret (P07949 whole entry): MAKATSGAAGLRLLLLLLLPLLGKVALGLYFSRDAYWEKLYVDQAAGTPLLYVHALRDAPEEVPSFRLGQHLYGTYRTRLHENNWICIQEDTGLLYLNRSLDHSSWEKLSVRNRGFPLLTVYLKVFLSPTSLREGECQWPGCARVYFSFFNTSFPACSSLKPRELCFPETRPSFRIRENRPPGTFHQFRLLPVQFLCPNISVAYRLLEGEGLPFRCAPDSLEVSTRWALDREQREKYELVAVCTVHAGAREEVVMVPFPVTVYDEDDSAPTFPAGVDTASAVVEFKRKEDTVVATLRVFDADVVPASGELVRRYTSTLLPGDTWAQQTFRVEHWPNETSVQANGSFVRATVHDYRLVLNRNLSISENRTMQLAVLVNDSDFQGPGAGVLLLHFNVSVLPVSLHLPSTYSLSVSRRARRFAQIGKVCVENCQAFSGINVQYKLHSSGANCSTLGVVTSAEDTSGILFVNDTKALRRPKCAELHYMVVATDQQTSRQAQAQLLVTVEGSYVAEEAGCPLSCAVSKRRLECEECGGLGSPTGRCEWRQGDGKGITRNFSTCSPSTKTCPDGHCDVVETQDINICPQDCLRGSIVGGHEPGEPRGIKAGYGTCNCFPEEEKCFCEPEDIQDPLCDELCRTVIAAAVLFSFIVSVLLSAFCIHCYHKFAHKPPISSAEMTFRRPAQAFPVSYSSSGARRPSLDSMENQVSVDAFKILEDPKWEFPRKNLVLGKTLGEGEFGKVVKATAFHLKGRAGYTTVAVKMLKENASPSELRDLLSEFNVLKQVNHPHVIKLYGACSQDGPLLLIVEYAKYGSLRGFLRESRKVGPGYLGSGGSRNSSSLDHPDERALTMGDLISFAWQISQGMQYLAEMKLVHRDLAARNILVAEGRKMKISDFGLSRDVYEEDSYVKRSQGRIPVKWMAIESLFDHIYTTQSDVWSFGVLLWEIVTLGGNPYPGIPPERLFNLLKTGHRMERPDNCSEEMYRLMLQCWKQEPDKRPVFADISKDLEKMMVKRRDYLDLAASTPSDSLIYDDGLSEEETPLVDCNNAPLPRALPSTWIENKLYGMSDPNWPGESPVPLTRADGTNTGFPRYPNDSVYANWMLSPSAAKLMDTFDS
# Chain of DnaJ homolog subfamily A member 1 (P31689 whole entry): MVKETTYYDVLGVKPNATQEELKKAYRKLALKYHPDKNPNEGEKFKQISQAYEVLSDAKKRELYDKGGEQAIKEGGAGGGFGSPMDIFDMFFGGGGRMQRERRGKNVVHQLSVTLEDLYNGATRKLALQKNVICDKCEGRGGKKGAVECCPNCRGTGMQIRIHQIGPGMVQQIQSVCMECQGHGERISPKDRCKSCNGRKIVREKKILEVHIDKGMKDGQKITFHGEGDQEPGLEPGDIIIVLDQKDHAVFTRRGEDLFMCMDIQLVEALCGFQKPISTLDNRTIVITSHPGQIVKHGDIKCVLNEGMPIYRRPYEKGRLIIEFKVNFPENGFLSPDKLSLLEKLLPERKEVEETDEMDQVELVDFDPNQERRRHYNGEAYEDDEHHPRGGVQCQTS
Structure (SMILES),Kd [1],Kd [2],Kd (Ephrin type-B receptor 6),Kd [3],Kd [4],Kd [5],Kd (TGF-beta receptor type-2),Kd [6]
C[C@@H](Oc1cc(C(=O)Nc2ccc(C(=O)N3CCN(C)CC3)cc2)nnc1N)c1c(Cl)ccc(F)c1Cl,> 30 µM (inactive),> 30 µM (inactive),> 30 µM (inactive),> 30 µM (inactive),> 30 µM (inactive),> 30 µM (inactive),> 30 µM (inactive),
C[C@H]1CNCCCN1S(=O)(=O)c1cccc2cncc(F)c12,> 30 µM (inactive),> 30 µM (inactive),> 30 µM (inactive),> 30 µM (inactive),> 30 µM (inactive),> 30 µM (inactive),,
CCNC(=O)C#Cc1ccc2c(c1)NC(=O)/C2=C(\Nc1ccc(CN(C)C)cc1)c1ccccc1,0.227 µM (active),> 30 µM (inactive),> 30 µM (inactive),> 30 µM (inactive),> 30 µM (inactive),> 30 µM (inactive),> 30 µM (inactive),
Cc1nc2cc(-c3nn(C(C)C)c4ncnc(N)c34)ccc2o1,1.6 µM (active),> 30 µM (inactive),> 30 µM (inactive),> 30 µM (inactive),0.123 µM (active),> 30 µM (inactive),> 30 µM (inactive),
Nc1ncnc2c1c(-c1cccc(OCc3ccccc3)c1)cn2[C@H]1C[C@@H](CN2CCC2)C1 [AEW-541],23.2 µM (active),> 30 µM (inactive),> 30 µM (inactive),> 30 µM (inactive),1.44 µM (active),> 30 µM (inactive),> 30 µM (inactive),
Cc1nc(NC(=O)N2CCC[C@H]2C(N)=O)sc1-c1ccnc(C(C)(C)C(F)(F)F)c1 [ALPELISIB],> 30 µM (inactive),> 30 µM (inactive),> 30 µM (inactive),> 30 µM (inactive),> 30 µM (inactive),> 30 µM (inactive),,
Cc1csc(-c2nnc(Nc3ccc(Oc4ncccc4-c4ccnc(N)n4)cc3)c3ccccc23)c1 [AMG-900],1.14 µM (active),> 30 µM (inactive),> 30 µM (inactive),> 30 µM (inactive),> 30 µM (inactive),> 30 µM (inactive),> 30 µM (inactive),
O=C(Nc1c[nH]nc1-c1nc2cc(CN3CCOCC3)ccc2[nH]1)NC1CC1 [AT-9283],,> 30 µM (inactive),0.012 µM (active),> 30 µM (inactive),0.021 µM (active),,,> 30 µM (inactive)
CNC(=O)c1ccccc1Sc1ccc2c(/C=C/c3ccccn3)n[nH]c2c1 [AXITINIB],,> 30 µM (inactive),,> 30 µM (inactive),,> 30 µM (inactive),,> 30 µM (inactive)
COc1cc([C@@H]2c3cc4c(cc3[C@H](O)[C@H]3COC(=O)[C@@H]23)OCO4)cc(OC)c1OC [AXL-1717],> 30 µM (inactive),> 30 µM (inactive),> 30 µM (inactive),> 30 µM (inactive),> 30 µM (inactive),,> 30 µM (inactive),
CCn1c(C(=O)N(C2CC2)C2CC2)cc2c3c(ncn3C)c(Nc3cc(C)n(C)n3)nc21 [BMS-911543],> 30 µM (inactive),> 30 µM (inactive),> 30 µM (inactive),> 30 µM (inactive),> 30 µM (inactive),> 30 µM (inactive),> 30 µM (inactive),
Cc1cc(Nc2ncc(Cl)c(Nc3ccccc3S(=O)(=O)C(C)C)n2)c(OC(C)C)cc1C1CCNCC1 [CERITINIB],,> 30 µM (inactive),> 30 µM (inactive),> 30 µM (inactive),> 30 µM (inactive),> 30 µM (inactive),> 30 µM (inactive),
COCC(=O)NC/C=C/c1ccc2ncnc(Nc3ccc(Oc4ccc(C)nc4)c(C)c3)c2c1 [CP-724714],> 30 µM (inactive),> 30 µM (inactive),> 30 µM (inactive),> 30 µM (inactive),> 30 µM (inactive),> 30 µM (inactive),> 30 µM (inactive),
Cn1cc(C2=C(c3cn(C4CCN(Cc5ccccn5)CC4)c4ccccc34)C(=O)NC2=O)c2ccccc21 [ENZASTAURIN],,> 30 µM (inactive),,> 30 µM (inactive),,> 30 µM (inactive),,
Cc1nc2cc(-n3ncc(C(=O)c4cc5ccccc5[nH]4)c3N)ccc2[nH]1 [FGFR INHIBITOR DEBIO 1347],0.783 µM (active),> 30 µM (inactive),0.007 µM,> 30 µM (inactive),> 30 µM (inactive),> 30 µM (inactive),> 30 µM (inactive),
O=C(Nc1nc2cccc(-c3ccc(CN4CCS(=O)(=O)CC4)cc3)n2n1)C1CC1 [FILGOTINIB],> 30 µM (inactive),> 30 µM (inactive),> 30 µM (inactive),> 30 µM (inactive),> 30 µM (inactive),> 30 µM (inactive),> 30 µM (inactive),
C[C@@H](Oc1cc(-n2cnc3ccc(CN4CCN(C)CC4)cc32)sc1C(N)=O)c1ccccc1C(F)(F)F [GSK-461364],,> 30 µM (inactive),,> 30 µM (inactive),,> 30 µM (inactive),,> 30 µM (inactive)
O=C(Nc1cc(C(F)(F)F)cc(C(F)(F)F)c1)c1cc(Cl)ccc1O [IMD-0354],> 30 µM (inactive),> 30 µM (inactive),> 30 µM (inactive),> 30 µM (inactive),> 30 µM (inactive),> 30 µM (inactive),> 30 µM (inactive),
CNC(=O)c1cccc2cc(Oc3ccnc4cc(OCC5(N)CC5)c(OC)cc34)ccc12 [LUCITANIB],0.005 µM (active),> 30 µM (inactive),> 30 µM (inactive),> 30 µM (inactive),> 30 µM (inactive),> 30 µM (inactive),> 30 µM (inactive),
CN(C[C@@H]1COCCO1)S(=O)(=O)Nc1ccc2ccc3ncc(-c4cnn(C)c4)cc3c(=O)c2c1 [MK-2461],,> 30 µM (inactive),> 30 µM (inactive),> 30 µM (inactive),> 30 µM (inactive),,> 30 µM (inactive),
CO[C@H]1C[C@@H]2CC[C@@H](C)[C@@](O)(O2)C(=O)C(=O)N2CCCC[C@H]2C(=O)O[C@H]([C@H](C)C[C@@H]2CC[C@@H](OP(C)(C)=O)[C@H](OC)C2)CC(=O)[C@H](C)/C=C(\C)[C@@H](O)[C@@H](OC)C(=O)[C@H](C)C[C@H](C)/C=C/C=C/C=C/1C [RIDAFOROLIMUS],> 30 µM (inactive),> 30 µM (inactive),> 30 µM (inactive),> 30 µM (inactive),> 30 µM (inactive),> 30 µM (inactive),> 30 µM (inactive),
Cn1ncc(Cl)c1-c1cc(C(=O)N[C@H](CN)Cc2ccc(F)c(F)c2)oc1Cl [UPROSERTIB],> 30 µM (inactive),> 30 µM (inactive),> 30 µM (inactive),> 30 µM (inactive),> 30 µM (inactive),,,
